Measurements reported in ChEMBL document CHEMBL3507680, “University of Dundee, Gates Library screen for HepG2 cell viability”.

Assay: Human HepG2 cell viability assay in 384 well format
Type: toxicity, cell-based
Set-up: dose 125 nL, time 70.5 hour; cytotoxicity at 70.5 h: concentration not given beside the values
Conditions: HepG2 cells, read-out: Inhibition

Cc1cc(C)cc(CN2C[C@@H]3OCCN(S(=O)(=O)N(C)C)[C@@H]3C2)c1
cytotoxicity at 70.5 h: -5.73%

CCc1ccc(C(=O)N2C[C@@H]3COC[C@@H](C(=O)NC)[C@@H]3C2)cc1
cytotoxicity at 70.5 h: -0.591%

CCOCc1cncc2c1CCN(C(=O)c1cccc(C#N)c1)C2
cytotoxicity at 70.5 h: -1.85%

COc1cccc(CN2C[C@H]3CCNCC[C@H]3S2(=O)=O)c1
cytotoxicity at 70.5 h: 18.8%

CC(C)NC(=O)N1CCN(C(=O)C2CCOCC2)CC2(CNC(=O)C2)C1 (stereo not drawn)
cytotoxicity at 70.5 h: -16%

c1ccc(CO[C@H]2CO[C@@]3(CCCN(Cc4ccncc4)C3)C2)nc1
cytotoxicity at 70.5 h: -16.2%

O=c1cc(Cn2ccnc2)nc2n1CCCN(Cc1cccs1)C2
cytotoxicity at 70.5 h: -16.6%

O=C(c1ccc[nH]1)N1CCOCC2(CCN(C3CCOCC3)C2)C1 (stereo not drawn)
cytotoxicity at 70.5 h: -19%

N#Cc1cccc(N2CCCC3(C2)CN(c2nncs2)CCO3)c1 (stereo not drawn)
cytotoxicity at 70.5 h: 14%

CS(=O)(=O)NC[C@]12COC[C@H]1CN(C(=O)c1ncccn1)C2
cytotoxicity at 70.5 h: 17.4%

Cc1ccc(S(=O)(=O)N2Cc3c(CN(C)C)nn(C)c3C2)cc1
cytotoxicity at 70.5 h: 3.97%

CN(C)Cc1nn(C)c2c1CN(S(=O)(=O)c1ccccc1F)C2
cytotoxicity at 70.5 h: -0.163%

O=C1CCCN1CC1CN(C(=O)C2CCOCC2)Cc2nccn2C1 (stereo not drawn)
cytotoxicity at 70.5 h: -1.66%

Cn1cc(C[C@H]2[C@H](O)CCN2C(=O)C2CCCC2)cn1
cytotoxicity at 70.5 h: -2.64%

CN(Cc1cn2c(n1)CN(C(=O)C1CCOCC1)CC2)Cc1ccco1
cytotoxicity at 70.5 h: -1.65%

CS(=O)(=O)N1Cc2nccn2CC(CN2CCCC2=O)C1 (stereo not drawn)
cytotoxicity at 70.5 h: 1.5%

Cc1ccoc1C(=O)N1CC(C(=O)NCC2CC2)C2(CCOCC2)C1 (stereo not drawn)
cytotoxicity at 70.5 h: 1.52%

Cc1cccc(S(=O)(=O)N2Cc3c(CN(C)C)nn(C)c3C2)c1
cytotoxicity at 70.5 h: 2.96%

Cc1ccsc1C(=O)N1CCn2cnc(COCC3CC3)c2C1
cytotoxicity at 70.5 h: -4.7%

Cc1ncsc1CN1CC[C@H]2OCC[C@@]2(C(=O)N(C)C)C1
cytotoxicity at 70.5 h: -3.45%

Cn1cc(C[C@H]2[C@H](O)CCN2C(=O)C2CCOCC2)cn1
cytotoxicity at 70.5 h: -7.24%

Cc1ncsc1CN1CC[C@H]2OCC[C@@]2(C(=O)NCC2CC2)C1
cytotoxicity at 70.5 h: -3.48%

O=C1COC2(CCN(Cc3ccncc3)CC2)CN1CC1CC1
cytotoxicity at 70.5 h: 4.04%

CCn1cc2c(n1)C(COC)CN(C(=O)COc1ccccc1)C2 (stereo not drawn)
cytotoxicity at 70.5 h: 6.15%

COc1ccccc1OCC(=O)N1CCC[C@]2(C[C@@H](OC)CO2)C1
cytotoxicity at 70.5 h: 10.6%

Cc1csc([C@@H]2C[C@@H]3CCN(C(=O)c4cnccn4)C[C@H]3O2)n1
cytotoxicity at 70.5 h: -4.76%

Cn1ccnc1CN1CCC2(CC1)CC(Nc1ccccn1)CO2 (stereo not drawn)
cytotoxicity at 70.5 h: -2.46%

CCC1=N[C@@]2(CC[C@@H]3CN(S(=O)(=O)CC(C)C)C[C@@H]32)C(=O)N1CC
cytotoxicity at 70.5 h: 1.37%

Cc1ccsc1C(=O)N1CC(C(=O)NC(C)C)C2(CCOCC2)C1 (stereo not drawn)
cytotoxicity at 70.5 h: 1.65%

O=C1CCC2(CCCN(c3ncc(F)cn3)CC2)N1Cc1ccccc1 (stereo not drawn)
cytotoxicity at 70.5 h: 1.63%

O=C(c1c[nH]cn1)N1CCCn2c(nnc2Cn2cccc2)C1
cytotoxicity at 70.5 h: -1.3%

Cc1ccccc1OCC(=O)N1CC[C@]2(C[C@@H](OCC3CC3)CO2)C1
cytotoxicity at 70.5 h: -1.4%

CN(C)S(=O)(=O)N1C[C@@H](OCc2ccccn2)[C@H]2OCCC[C@H]21
cytotoxicity at 70.5 h: -3.83%

Cn1ncc2c1C(COCC1CC1)CN(Cc1cccnc1)C2 (stereo not drawn)
cytotoxicity at 70.5 h: -4.66%

COc1ccc(CN2Cc3cnn(C)c3C(COCC3CC3)C2)cc1 (stereo not drawn)
cytotoxicity at 70.5 h: -1.5%

COCC1CN(C(=O)C2=CCCC2)Cc2cnn(CC3CC3)c21 (stereo not drawn)
cytotoxicity at 70.5 h: -2.82%

Cc1cnc(C(=O)N2CC[C@H]3C[C@@H](c4nc(C)cs4)O[C@@H]3C2)cn1
cytotoxicity at 70.5 h: 7.61%

O=C(Cc1ccccc1)N1CCn2cc(Cn3cncn3)nc2C1
cytotoxicity at 70.5 h: 9.06%

CO[C@H]1CC[C@H]2[C@H]1OCCN2C(=O)C1=CCCC1
cytotoxicity at 70.5 h: 9.7%

Cn1nc(C#N)c2c1CN(C(=O)c1ccco1)CCC2
cytotoxicity at 70.5 h: 14.2%

COCC1CC2(CCN(C(=O)c3ccc(F)c(Cl)c3)CC2)CO1 (stereo not drawn)
cytotoxicity at 70.5 h: 13%

O=C(c1cnccn1)N1CCC2(CCCN(Cc3ccoc3)C2)C1 (stereo not drawn)
cytotoxicity at 70.5 h: 11.3%

O=S(=O)(C1CC1)N1CCC2(CC1)CC(Oc1ccccn1)CO2 (stereo not drawn)
cytotoxicity at 70.5 h: 2.03%

COc1ccc(CN2C[C@H](N3CCCC3=O)[C@@H]3OCCC[C@@H]32)cc1
cytotoxicity at 70.5 h: -7%

Cn1cc(CN2C[C@@H]3CCCO[C@@H]3[C@H](N3CCCC3=O)C2)cn1
cytotoxicity at 70.5 h: -4.04%

Cc1cccc(CN2C[C@@H]3OCCN(S(=O)(=O)N(C)C)[C@@H]3C2)c1
cytotoxicity at 70.5 h: -2.05%

CC(C)N1CCc2c(c(COc3cncnc3)nn2CC2CC2)C1
cytotoxicity at 70.5 h: -3.91%

CNC(=O)CN1CCOCC2(C1)CN(C(=O)C(C)C)CCO2 (stereo not drawn)
cytotoxicity at 70.5 h: -9.58%

O=C([C@@H]1CCO[C@@H]2CCN(Cc3cccs3)C[C@H]21)N1CCCCO1
cytotoxicity at 70.5 h: -18.4%

COCCN1CC[C@H]2OCC[C@@H](C(=O)N3CCCO3)[C@H]2C1
cytotoxicity at 70.5 h: 47%

COc1ccccc1CN1CC[C@H]2C[C@H](C(=O)N3CCCC3)O[C@H]2C1
cytotoxicity at 70.5 h: 15.4%

Cc1cccc(C(=O)N2CC(C(=O)NCC3CC3)C3(CCOCC3)C2)n1 (stereo not drawn)
cytotoxicity at 70.5 h: -2.96%

COCCNC(=O)[C@@]12CCO[C@@H]1CCN(Cc1scnc1C)C2
cytotoxicity at 70.5 h: -2.1%

CCS(=O)(=O)N1C[C@@H]2CN(Cc3cnn(C)c3)CCO[C@@H]2C1
cytotoxicity at 70.5 h: 2.4%

CCCS(=O)(=O)N1C[C@@H]2CN(Cc3cnn(C)c3)CCO[C@@H]2C1
cytotoxicity at 70.5 h: -1.12%

COCC1CN(C(=O)COc2ccc(C)cc2)Cc2cn(C)nc21 (stereo not drawn)
cytotoxicity at 70.5 h: -2.9%

Cc1occc1C(=O)N1C[C@@H]2[C@@H](C1)OCC(=O)N2Cc1cccnc1
cytotoxicity at 70.5 h: -2.83%

O=C(NCC1OCCc2cn(CC3CCOCC3)nc21)c1ccsc1 (stereo not drawn)
cytotoxicity at 70.5 h: 5%

O=C(O)[C@]12CCCN(Cc3ccsc3)C[C@H]1CN(c1ncccn1)C2
cytotoxicity at 70.5 h: 1.99%

Cn1nc(Cn2ccnc2)c2c1CN(c1nccs1)C2
cytotoxicity at 70.5 h: -5.95%

Cn1cc(CN2C[C@H](N3CCOCC3)[C@@H]3OCCC[C@@H]32)cn1
cytotoxicity at 70.5 h: -4.71%

Cc1ccc(CN2CC[C@]3(C[C@H](OCc4ccccn4)CO3)C2)o1
cytotoxicity at 70.5 h: -18.4%

CCS(=O)(=O)NC[C@]12COC[C@H]1CN(Cc1cccnc1OC)C2
cytotoxicity at 70.5 h: -19.9%

O=C(Nc1cccnc1)[C@H]1CN(C2CCCC2)C[C@H]2OCC[C@@H]12
cytotoxicity at 70.5 h: -2.64%

CN1CC(=O)N(c2ccccc2)CC12CCN(Cc1nccn1C)C2 (stereo not drawn)
cytotoxicity at 70.5 h: 4.89%

CN1CC(=O)N(c2cccc(F)c2)CC12CCN(Cc1cncn1C)C2 (stereo not drawn)
cytotoxicity at 70.5 h: -4.15%

CN1CC(=O)N(c2cccc(F)c2)CC12CCN(Cc1nccs1)C2 (stereo not drawn)
cytotoxicity at 70.5 h: -1.43%

Cn1ccnc1CN1CCC2(CC1)CN(Cc1cccnc1)C(=O)CO2
cytotoxicity at 70.5 h: -5.54%

Cn1cc(CN2CCO[C@@H]3CN(Cc4ccoc4)C[C@@H]3C2)cn1
cytotoxicity at 70.5 h: -0.642%

O=C(c1c[nH]cn1)N1CCCn2c(CN3CCCCC3)nnc2C1
cytotoxicity at 70.5 h: -1.43%

O=C(O)[C@]12CCCN(Cc3ccsc3)C[C@H]1CN(c1ccccn1)C2
cytotoxicity at 70.5 h: 13.5%

Cc1nc(CN2CC[C@H]3[C@H]2CCN3c2ncccn2)cs1
cytotoxicity at 70.5 h: -5.71%

c1ccc(CN2CC[C@H]3[C@H]2CCN3c2ncccn2)nc1
cytotoxicity at 70.5 h: -5.09%
